# In patent US20130164226A1, “FOAMABLE AEROSOL COMPOSITION” (DAIZO CORPORATION, priority 2010, published 2013):
# Assay: Solubility of the liquefied gas in water
# Type: physicochemical
# Conditions: at 20° C.
# Protocol: In the present invention, the liquefied gas to be blended is characterized by being a poorly water-soluble liquefied gas having solubility in water at 20° C. of less than 10 wt %, preferably less than 5 wt %. When the solubility of the liquefied gas in water is more than 10 wt %, the liquefied gas is hardly emulsified with the concentrate and emulsification stability is apt to be lowered, and therefore, a uniform composition tends to be hardly sprayed. In addition, in the case of blending a gas mixture as the liquefied gas, it is enough for the gas mixture to have properties corresponding to those of a poorly water-soluble liquefied gas.
row,SMILES,solubility in water [wt %]
1,"F/C=C/C(F)(F)F [trans-1,3,3,3-tetrafluoroprop-1-ene]",≤ 1
2,"COC [dimethyl ether (*17), dimethyl ether]",33
